Reference: US9518026B2, “5-aminopyrazole-4-carboxamide inhibitors of CDPK1 from T. gondii and C. parvum” (UNIVERSITY OF WASHINGTON THROUGH ITS CENTER FOR …, priority 2013, dated 2016)
Where two headings read alike, the source gives them in different places.

Columns and labels:
[1] = test system: C. parvum; assay: Inhibition of C. parvum proliferation; type: cell-based; settings: Cryptosporidium parvum, read-out: Inhibit Parasite Prolif. (EC50, μM) C. parvum
[2] = Cell toxicity in HepG2; type: cell-based; settings: human, HepG2 cells (hepatocellular carcinoma); Table 4
Description: All compounds were assayed for inhibition of TgCDPK1 and CpCDPK1 and on the small-gatekeeper (Thr) human kinases, Src and Abl. Human cell toxicity was evaluated in two human cell lines, HepG2 (hepatocellular carcinoma) and CRL8155 (lymphoblast, spleen). hERG inhibition has been associated with long Q-T syndrome (cardiotoxicity), and the compounds were evaluated for hERG inhibitory activity.

[3] = Cytotoxicity against CRL8155 cell line; type: cell-based; settings: human, CRL8155 cells (lymphoblast, spleen)
[4] = target: hERG (Homo sapiens (Human), UniProt Q12809); assay: biochemical; type: binding
hERG, sequence (Q12809 whole entry): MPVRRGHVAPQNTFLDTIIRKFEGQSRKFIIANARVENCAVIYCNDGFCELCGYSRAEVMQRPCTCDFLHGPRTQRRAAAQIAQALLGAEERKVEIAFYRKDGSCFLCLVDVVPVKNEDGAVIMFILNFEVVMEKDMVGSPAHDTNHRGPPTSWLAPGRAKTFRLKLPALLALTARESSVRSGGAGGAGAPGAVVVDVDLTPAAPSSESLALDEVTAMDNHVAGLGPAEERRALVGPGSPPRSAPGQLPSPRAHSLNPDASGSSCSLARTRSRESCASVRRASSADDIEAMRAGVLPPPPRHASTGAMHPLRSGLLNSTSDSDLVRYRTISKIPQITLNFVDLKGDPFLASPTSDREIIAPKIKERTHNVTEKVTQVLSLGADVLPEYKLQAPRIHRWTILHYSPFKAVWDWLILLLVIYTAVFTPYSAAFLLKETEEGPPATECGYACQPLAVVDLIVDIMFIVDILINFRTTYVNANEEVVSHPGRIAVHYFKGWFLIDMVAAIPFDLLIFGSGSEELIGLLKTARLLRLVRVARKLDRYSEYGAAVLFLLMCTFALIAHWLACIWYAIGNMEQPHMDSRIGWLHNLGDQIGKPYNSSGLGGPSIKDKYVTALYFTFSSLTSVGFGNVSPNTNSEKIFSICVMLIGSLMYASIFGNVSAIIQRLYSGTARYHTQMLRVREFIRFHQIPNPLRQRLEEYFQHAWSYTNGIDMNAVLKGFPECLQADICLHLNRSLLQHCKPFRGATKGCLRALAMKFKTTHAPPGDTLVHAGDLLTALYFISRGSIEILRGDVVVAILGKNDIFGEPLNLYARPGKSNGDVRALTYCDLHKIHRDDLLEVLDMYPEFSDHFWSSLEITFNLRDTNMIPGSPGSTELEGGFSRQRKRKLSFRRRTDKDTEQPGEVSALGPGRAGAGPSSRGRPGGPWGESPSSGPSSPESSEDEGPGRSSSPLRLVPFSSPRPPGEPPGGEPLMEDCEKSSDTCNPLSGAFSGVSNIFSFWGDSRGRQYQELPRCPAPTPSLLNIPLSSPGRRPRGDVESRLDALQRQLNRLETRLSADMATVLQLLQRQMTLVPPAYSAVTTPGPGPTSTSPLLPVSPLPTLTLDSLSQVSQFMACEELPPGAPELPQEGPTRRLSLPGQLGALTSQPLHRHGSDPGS

[5] = Pharmacokinetic studies in mice; settings: mouse, in vivo, 10 mg/kg
[6] = target: TgCDPK1 (Toxoplasma gondii, UniProt Q9BJF5); assay: biochemical
TgCDPK1, sequence (Q9BJF5 1-507): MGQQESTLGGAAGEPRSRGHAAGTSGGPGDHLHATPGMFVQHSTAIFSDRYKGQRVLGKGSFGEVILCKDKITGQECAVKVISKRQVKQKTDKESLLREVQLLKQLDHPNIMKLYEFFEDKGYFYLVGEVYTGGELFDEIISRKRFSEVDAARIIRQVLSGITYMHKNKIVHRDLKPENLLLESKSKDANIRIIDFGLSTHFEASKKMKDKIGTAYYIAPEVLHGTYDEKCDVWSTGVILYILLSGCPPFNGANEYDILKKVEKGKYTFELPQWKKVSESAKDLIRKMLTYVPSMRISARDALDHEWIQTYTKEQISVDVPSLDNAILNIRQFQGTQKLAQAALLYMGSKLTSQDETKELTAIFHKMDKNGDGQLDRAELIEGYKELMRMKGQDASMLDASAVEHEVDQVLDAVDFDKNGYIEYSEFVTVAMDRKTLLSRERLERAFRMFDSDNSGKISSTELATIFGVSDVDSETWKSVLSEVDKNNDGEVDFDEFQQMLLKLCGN

[7] = target: CpCDPK1 (Cryptosporidium parvum (strain Iowa II), UniProt A3FQ16); assay: biochemical
CpCDPK1, sequence (A3FQ16 1-538): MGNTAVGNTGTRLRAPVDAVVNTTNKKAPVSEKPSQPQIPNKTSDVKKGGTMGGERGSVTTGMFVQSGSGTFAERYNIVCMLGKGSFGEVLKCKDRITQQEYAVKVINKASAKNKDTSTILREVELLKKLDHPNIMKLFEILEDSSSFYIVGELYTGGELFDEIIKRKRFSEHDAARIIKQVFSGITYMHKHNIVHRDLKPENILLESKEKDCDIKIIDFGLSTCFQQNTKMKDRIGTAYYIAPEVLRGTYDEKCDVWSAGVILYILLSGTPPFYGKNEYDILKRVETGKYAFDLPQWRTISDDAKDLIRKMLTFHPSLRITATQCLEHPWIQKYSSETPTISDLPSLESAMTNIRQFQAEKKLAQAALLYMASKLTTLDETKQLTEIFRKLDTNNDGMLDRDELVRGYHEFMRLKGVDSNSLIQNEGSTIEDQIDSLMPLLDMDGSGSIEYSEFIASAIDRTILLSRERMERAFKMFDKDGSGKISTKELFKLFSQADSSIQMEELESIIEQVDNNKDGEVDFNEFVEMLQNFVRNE

[8] = test system: T. gondii; assay: Inhibition of T. gondii cell proliferation; type: cell-based; settings: Toxoplasma gondii
[9] = target: Src (Homo sapiens (Human), UniProt P12931); assay: biochemical
Src, sequence (P12931 270-523): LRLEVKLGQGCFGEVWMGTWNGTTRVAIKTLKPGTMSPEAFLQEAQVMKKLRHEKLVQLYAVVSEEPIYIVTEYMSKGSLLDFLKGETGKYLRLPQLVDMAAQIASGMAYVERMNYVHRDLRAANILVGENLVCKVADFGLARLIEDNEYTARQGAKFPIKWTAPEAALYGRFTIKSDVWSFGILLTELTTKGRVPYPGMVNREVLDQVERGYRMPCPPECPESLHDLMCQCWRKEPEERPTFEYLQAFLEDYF

[10] = target: Abl (Homo sapiens (Human), UniProt P00519); assay: biochemical
Abl, sequence (P00519 242-493): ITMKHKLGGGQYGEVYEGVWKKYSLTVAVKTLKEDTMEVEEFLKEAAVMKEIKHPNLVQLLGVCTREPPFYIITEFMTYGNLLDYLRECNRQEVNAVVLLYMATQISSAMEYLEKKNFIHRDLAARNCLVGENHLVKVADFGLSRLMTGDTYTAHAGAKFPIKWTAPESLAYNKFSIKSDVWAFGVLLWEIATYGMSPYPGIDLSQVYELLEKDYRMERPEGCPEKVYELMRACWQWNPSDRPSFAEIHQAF

[11] = Solubility at pH 6.5; type: physicochemical
[12] = test system: T. gondii Type 1 RH strain tachyzoites; assay: T. gondii infection in mice; type: in vivo; settings: CF-1 mice, peritoneal lavage day 8
Description: 1×10^5 T. gondii Type 1 RH strain tachyzoites expressing YFP were inoculated i.p. into 4-5 wk old female CF-1 mice (n=4). […] On day 8, the mice were killed, and underwent peritoneal lavage. T. gondii were enumerated via fluorescent microscopy and plotted, per mouse.

[13] = test system: P-gp; assay: Diffusion across the MDCK-PGP monolayer; type: in vitro ADME; settings: dog, MDCK-MDR1; predicts CNS penetration
[14] = test system: 80 human protein kinases (hPKs); assay: AbbVie panel of 80 human protein kinases; type: biochemical; settings: at levels up to 3 μM; tested by AbbVie
[15] = test system: 24 off-target liabilities (e.g. ion channels, G-protein receptors); assay: 24 off-target liability screen; settings: tested by AbbVie
[16] = Stability (comparison of compound 39 and compound 9)
[17] = Oral availability (comparison of compound 39 and compound 9); type: in vivo; settings: compared with compound 9 (1294)
[18] = target: Prkcn (Homo sapiens (Human), UniProt O94806); assay: Kinase panel selectivity: Prkcn; type: biochemical
Prkcn, sequence (O94806 whole entry, looked up, species assumed): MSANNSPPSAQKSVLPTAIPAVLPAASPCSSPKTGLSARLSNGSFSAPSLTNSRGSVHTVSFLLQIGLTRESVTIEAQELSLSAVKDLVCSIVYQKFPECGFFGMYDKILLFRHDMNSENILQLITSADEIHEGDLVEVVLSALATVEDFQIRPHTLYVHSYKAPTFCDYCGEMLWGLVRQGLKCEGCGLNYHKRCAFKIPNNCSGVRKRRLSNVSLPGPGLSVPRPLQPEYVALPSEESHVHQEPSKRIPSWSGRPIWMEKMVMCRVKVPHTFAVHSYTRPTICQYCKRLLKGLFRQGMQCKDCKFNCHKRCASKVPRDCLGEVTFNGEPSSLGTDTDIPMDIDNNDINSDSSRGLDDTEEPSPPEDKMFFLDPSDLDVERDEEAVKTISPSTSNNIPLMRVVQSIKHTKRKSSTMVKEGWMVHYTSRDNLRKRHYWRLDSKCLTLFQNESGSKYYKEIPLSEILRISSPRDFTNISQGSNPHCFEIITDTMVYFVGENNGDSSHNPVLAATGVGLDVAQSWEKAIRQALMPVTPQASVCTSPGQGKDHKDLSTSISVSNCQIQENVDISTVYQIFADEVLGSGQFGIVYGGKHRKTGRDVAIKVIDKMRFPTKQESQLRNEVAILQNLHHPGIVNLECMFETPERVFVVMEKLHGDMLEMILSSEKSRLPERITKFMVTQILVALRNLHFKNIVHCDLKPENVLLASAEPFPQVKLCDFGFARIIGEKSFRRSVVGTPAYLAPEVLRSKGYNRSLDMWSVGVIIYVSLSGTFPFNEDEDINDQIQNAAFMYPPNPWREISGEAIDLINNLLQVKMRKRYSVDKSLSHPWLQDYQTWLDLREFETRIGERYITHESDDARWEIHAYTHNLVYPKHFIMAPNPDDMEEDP

[19] = target: Kdr (Homo sapiens (Human), UniProt P35968); assay: Kinase panel selectivity: Kdr; type: biochemical
Kdr, sequence (P35968 20-1356, species assumed): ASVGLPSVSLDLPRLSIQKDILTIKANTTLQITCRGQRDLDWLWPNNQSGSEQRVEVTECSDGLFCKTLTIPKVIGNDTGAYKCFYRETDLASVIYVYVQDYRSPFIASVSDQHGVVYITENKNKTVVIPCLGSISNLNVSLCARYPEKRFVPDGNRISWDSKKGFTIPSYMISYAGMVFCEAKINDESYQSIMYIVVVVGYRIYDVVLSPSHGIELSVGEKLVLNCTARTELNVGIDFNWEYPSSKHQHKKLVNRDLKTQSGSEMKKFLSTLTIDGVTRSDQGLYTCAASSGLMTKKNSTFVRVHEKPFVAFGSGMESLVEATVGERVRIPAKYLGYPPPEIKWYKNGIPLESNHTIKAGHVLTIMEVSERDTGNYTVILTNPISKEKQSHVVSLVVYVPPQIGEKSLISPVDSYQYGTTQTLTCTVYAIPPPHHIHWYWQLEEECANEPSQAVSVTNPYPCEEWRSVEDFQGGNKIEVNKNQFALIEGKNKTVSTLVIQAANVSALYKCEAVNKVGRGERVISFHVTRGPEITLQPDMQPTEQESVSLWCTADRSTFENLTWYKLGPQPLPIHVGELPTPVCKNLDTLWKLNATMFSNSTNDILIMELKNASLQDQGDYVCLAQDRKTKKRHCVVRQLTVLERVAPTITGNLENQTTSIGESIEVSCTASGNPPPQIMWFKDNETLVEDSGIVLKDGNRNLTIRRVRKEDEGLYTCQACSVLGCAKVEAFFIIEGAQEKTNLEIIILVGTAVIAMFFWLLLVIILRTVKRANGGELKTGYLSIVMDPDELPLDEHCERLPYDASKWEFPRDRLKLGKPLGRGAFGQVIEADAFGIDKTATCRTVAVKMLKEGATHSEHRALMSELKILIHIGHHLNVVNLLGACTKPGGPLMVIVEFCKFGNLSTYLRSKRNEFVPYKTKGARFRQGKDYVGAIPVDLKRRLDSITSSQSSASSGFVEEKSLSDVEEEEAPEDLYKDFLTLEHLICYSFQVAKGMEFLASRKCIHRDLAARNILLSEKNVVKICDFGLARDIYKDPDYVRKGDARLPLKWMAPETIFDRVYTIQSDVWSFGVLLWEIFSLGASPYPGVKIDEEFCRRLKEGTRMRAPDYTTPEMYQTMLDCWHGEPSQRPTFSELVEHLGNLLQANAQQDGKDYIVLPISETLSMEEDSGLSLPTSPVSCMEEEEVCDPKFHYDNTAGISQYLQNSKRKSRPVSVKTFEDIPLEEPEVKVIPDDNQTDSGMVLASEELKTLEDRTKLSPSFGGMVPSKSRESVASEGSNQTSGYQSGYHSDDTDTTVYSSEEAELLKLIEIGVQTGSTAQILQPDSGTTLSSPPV

[20] = test system: C. parvum Iowa strain; assay: C. parvum infection in mice (beige/SCID mouse model); settings: oral gavage 20 mg/kg 8 AM and 40 mg/kg 5 PM, days 5-14 after infection; each time point except Days 0 and 3; p≦0.05
[21] = Table 2, read-out: Cytotoxicity (CRL8155) EC50
[22] = Table 4, read-out: Cell toxicity (EC50, μM) CRL 8155
[23] = Table 1, KinaseGlo, Syntide 2 peptide substrate, read-out: CpCDPK1 IC50
[24] = Table 4, read-out: Enzyme Inhibition (IC50, μM) Cp CDPK1
[25] = Table 3, read-out: Cytotoxicity (CRL8155) EC50
[26] = Enzyme Inhibition (IC50, μM) SrcKD, Table 4
[27] = Table 1, KinaseGlo, Syntide 2 peptide substrate, read-out: TgCDPK1 IC50
[28] = Table 3, read-out: T. gondii EC50

SMILES	EC50 [2]	EC50 [3, 22]	IC50 [7, 23]	IC50 [9]	EC50 [3, 25]	IC50 [6, 27]	EC50 [8, 28]	further results
CCOc1ccc2cc(-c3nn(C(C)(C)C)c(N)c3C(N)=O)ccc2c1 [Compound 3, 5-amino-1-tert-butyl-3-(6-ethoxynaphthalen-2-yl)-1H-pyrazole-4-carboxamide]	> 40 µM							EC50 [1]: 0.05 µM
COc1ccc2cc(-c3nn(C(C)(C)C)c(N)c3C(N)=O)ccc2c1 [Compound 25, 5-amino-1-(tert-butyl)-3-(6-methoxynaphthalen-2-yl)-1H-pyrazole-4-carboxamide]	> 40 µM	> 40 µM						EC50 [1]: 0.1 µM; EC50 [3, 21]: > 40 µM; IC50 [4]: > 10000 nM; AUC [5]: 5.94 µM·h; Cmax [5]: 3.1 µM; Tmax [5]: 30 min
CCCOc1ccc2cc(-c3nn(C(C)(C)C)c(N)c3C(N)=O)ccc2c1 [Compound 26, 5-amino-1-(tert-butyl)-3-(6-propoxynaphthalen-2-yl)-1H-pyrazole-4-carboxamide]	> 40 µM	38 µM	0.01 µM	7.8 µM				IC50 ([6]; read-out: Enzyme Inhibition (IC50, μM) Tg CDPK1): 0.007 µM; IC50 ([6]; read-out: TgCDPK1 IC50): 0.007 µM; IC50 [7, 24]: 0.01 µM; EC50 ([8]; Table 4, read-out: Inhibit Parasite Prolif. (EC50, μM) T. gondii): 0.37 µM; IC50 [10]: > 10000 nM
CCOc1ccc2cc(-c3nn(C(C)(C)C)c(N)c3C(N)=O)cnc2c1 [Compound 39, 5-amino-1-(tert-butyl)-3-(7-ethoxyquinolin-3-yl)-1H-pyrazole-4-carboxamide]	> 40 µM	> 40 µM			> 30 µM			EC50 ([1]; Table 4): 0.05 µM; EC50 [3, 21]: > 30 µM; hERG inhibitory activity (in words) [4]: no hERG inhibitory activity; solubility (in words) [11]: good solubility; mean parasite burden decreased ([12]; oral gavage 5/10 mg/kg [AM/PM] for 5 d): 69%; mean parasite burden decreased ([12]; oral gavage 20/40 mg/kg [AM/PM] for 5 d): 93%; Papp [13]: 56.3 ×10⁻⁶ cm/s; inhibition of human protein kinases (panel of 80 hPKs) [14]: No hPKs were inhibited; signal in 24 off-target liability screen [15]: no signal was detected; stability (in words) [16]: good stability; oral availability (in words) [17]: higher oral availability; IC50 [18]: 1110 nM; Ki [18]: 427 nM; IC50 [19]: 2460 nM; Ki [19]: 569 nM; oocysts shed in mouse stool, treated vs vehicle [20]: the difference was significant
COc1ccc2cc(-c3nn(C(C)(C)C)c(N)c3C(N)=O)cnc2c1 [Compound 1543, 5-amino-1-tert-butyl-3-(7-methoxyquinolin-3-yl)-1H-pyrazole-4-carboxamide]	> 40 µM	> 40 µM	0.003 µM		> 40 µM			IC50 [7, 24]: 0.003 µM; IC50 [9, 26]: > 10 µM; IC50 ([9]; Src IC50 (μM), Table 3): > 30 µM; IC50 [10]: > 10000 nM
CCCOc1ccc2cc(-c3nn(C(C)(C)C)c(N)c3C(N)=O)cnc2c1 [Compound 1566, 5-amino-1-tert-butyl-3-(7-propoxyquinolin-3-yl)-1H-pyrazole-4-carboxamide]	> 40 µM	16 µM			> 40 µM			IC50 [9, 26]: > 10 µM; IC50 ([9]; Src IC50 (μM), Table 3): > 10 µM; IC50 [10]: > 10000 nM
CCOc1ccc2cc(-c3nn(C4CCCCC4)c(N)c3C(N)=O)cnc2c1 [Compound 1571, 5-amino-1-cyclohexyl-3-(7-ethoxyquinolin-3-yl)-1H-pyrazole-4-carboxamide]	> 40 µM	> 40 µM	0.005 µM					IC50 [9, 26]: 10 µM; IC50 ([9]; Src IC50 (μM), Table 3): > 10 µM; IC50 [10]: > 10000 nM
CCOc1ccc2cc(-c3nn(C(C)C)c(N)c3C(N)=O)cnc2c1 [Compound 1572, 5-amino-3-(7-ethoxyquinolin-3-yl)-1-isopropyl-1H-pyrazole-4-carboxamide]	> 40 µM	> 40 µM	0.005 µM					
CC(C)(CO)Cn1nc(-c2cnc3cc(OC4CCC4)ccc3c2)c(C(N)=O)c1N [Compound 1644, 5-amino-3-(7-cyclobutoxyquinolin-3-yl)-1-(3-hydroxy-2,2-dimethylpropyl)-1H-pyrazole-4-carboxamide]			0.005 µM	> 10 µM	> 40 µM	0.012 µM	0.77 µM	
NC(=O)c1c(-c2ccc3nc(OC4CCC4)ccc3c2)nn(C2CCCCC2)c1N [Compound 1646, 5-amino-3-(2-cyclobutoxyquinolin-6-yl)-1-cyclohexyl-1H-pyrazole-4-carboxamide]			0.013 µM	> 10 µM	> 40 µM	0.016 µM	0.31 µM	
NC(=O)c1c(-c2cnc3cc(OC4CCC4)ccc3c2)nn(C2CCCCC2)c1N [Compound 1647, 5-amino-3-(7-cyclobutoxyquinolin-3-yl)-1-cyclohexyl-1H-pyrazole-4-carboxamide]			0.008 µM	> 10 µM	> 40 µM	0.019 µM	1.14 µM	
NC(=O)c1c(-c2ccc3nc(OC4CCC4)ccc3c2)nn(C2CCCC2)c1N [Compound 1653, 5-amino-3-(2-cyclobutoxyquinolin-6-yl)-1-cyclopentyl-1H-pyrazole-4-carboxamide]			0.006 µM	> 10 µM	> 40 µM	0.012 µM	0.21 µM	
NC(=O)c1c(-c2ccc3nc(OC4CCC4)ccc3c2)nn(C2CCC2)c1N [Compound 1656, 5-amino-3-(2-cyclobutoxyquinolin-6-yl)-1-cyclobutyl-1H-pyrazole-4-carboxamide]				> 10 µM	> 40 µM	0.007 µM	0.069 µM	
NC(=O)c1c(-c2cnc3cc(OC4CCC4)ccc3c2)nn(C2CCC2)c1N [Compound 1657, 5-amino-3-(7-cyclobutoxyquinolin-3-yl)-1-cyclobutyl-1H-pyrazole-4-carboxamide]				> 10 µM	> 40 µM	0.012 µM	0.69 µM	
NC(=O)c1c(-c2cnc3cc(OC4CCC4)ccc3c2)nn(C2CCCC2)c1N [Compound 1658, 5-amino-3-(7-cyclobutoxyquinolin-3-yl)-1-cyclopentyl-1H-pyrazole-4-carboxamide]			0.004 µM	> 10 µM	> 40 µM	0.012 µM	0.4 µM	
